Experimental data published in ChEMBL document CHEMBL1201862, “PubChem BioAssay data set” (2004).
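Briefly, cells in 96-well plates were exposed to five compound concentrations for 48 h, and endpoints were estimated by linear interpolation. GI50 marks 50% less growth.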 The source made the active and inactive calls. Cut-off read from the data, not from the text of the source: active = GI50 up to about 1.1 µM and inactive = higher.

Columns and labels:
Assay in all cases: NCI-60 cell line screen, 48 h
NCI-H226 = tested on: NCI-H226
NCI-H522 = tested on: NCI-H522
SNB-78 = tested on: SNB-78
NCI/ADR-RES = tested on: NCI/ADR-RES
RXF 393 = tested on: RXF 393
KM-20L2 = tested on: KM-20L2
M19-MEL = tested on: M19-MEL
DLD-1 = tested on: DLD-1
A498 = tested on: A498
DMS-273 = tested on: DMS-273
MCF7 = tested on: MCF7
HOP-92 = tested on: HOP-92
HOP-18 = tested on: HOP-18
DMS-114 = tested on: DMS-114
ACHN = tested on: ACHN
TK-10 = tested on: TK-10
M14 = tested on: M14

| SMILES | GI50 (NCI-H226) | GI50 (NCI-H522) | GI50 (SNB-78) | GI50 (NCI/ADR-RES) | GI50 (RXF 393) | GI50 (KM-20L2) | GI50 (M19-MEL) | GI50 (DLD-1) | GI50 (A498) | GI50 (DMS-273) | GI50 (MCF7) | GI50 (HOP-92) | GI50 (HOP-18) | GI50 (DMS-114) | GI50 (ACHN) | GI50 (TK-10) | GI50 (M14) |
| --- | --- | --- | --- | --- | --- | --- | --- | --- | --- | --- | --- | --- | --- | --- | --- | --- | --- |
| O=C1C=CC2OC(c3ccccc3)C(O)C2O1 (stereo not drawn) | 1.48 µM (inactive) | 1.35 µM (inactive) | 7.08 µM (inactive) | 2.94 µM (inactive) | 1.37 µM (inactive) | 5.98 µM (inactive) | 12 µM (inactive) | 3.89 µM (inactive) | 2.27 µM (inactive) | 4.91 µM (inactive) | 6.07 µM (inactive) | 2.15 µM (inactive) | 0.984 µM (active) | 4.57 µM (inactive) |  |  |  |
| CSCSCC(CO)NC(=O)/C=C\c1c(C)[nH]c(=O)[nH]c1=O (stereo not drawn) | 35 µM (inactive) | 0.959 µM (active) | 34.4 µM (inactive) | 19 µM (inactive) | 26.5 µM (inactive) | 7.76 µM (inactive) | 9.75 µM (inactive) | 11.6 µM (inactive) | 23.6 µM (inactive) | 37.8 µM (inactive) | 2.19 µM (inactive) | 0.838 µM (active) | 46.1 µM (inactive) | 5.56 µM (inactive) |  |  |  |
| COC(=O)[C@@H](O)[C@](O)(CCC(C)C)C(=O)O[C@@H]1C(OC)=C[C@]23CCCN2CCc2cc4c(cc2[C@H]13)OCO4 | 1.64 µM (inactive) | 0.598 µM (active) | 2.59 µM (inactive) | 11.8 µM (inactive) | 0.689 µM (active) | 1.5 µM (inactive) | 1.18 µM (inactive) | 1 µM (active) | 1.48 µM (inactive) | 0.585 µM (active) | 0.351 µM (active) | 1.05 µM (active) | 2.46 µM (inactive) | 0.265 µM (active) |  |  |  |
| NC(=O)C(=O)N/N=C1/c2ccccc2CC1C1(O)C(=O)Nc2c(Cl)cc(Cl)cc21 (stereo not drawn) | > 100 µM (inactive) | 61.4 µM (inactive) | > 100 µM (inactive) |  | 92 µM (inactive) | > 100 µM (inactive) | > 100 µM (inactive) | > 100 µM (inactive) | > 100 µM (inactive) | > 100 µM (inactive) |  | > 100 µM (inactive) | > 100 µM (inactive) | > 100 µM (inactive) | > 100 µM (inactive) | > 100 µM (inactive) |  |
| N/C(=N\O)N/N=C\c1ccccc1O | 16 µM (inactive) | 11.8 µM (inactive) | 21.9 µM (inactive) | 4.14 µM (inactive) | 7.98 µM (inactive) | 10.2 µM (inactive) | 16.6 µM (inactive) | 5.02 µM (inactive) | 8.95 µM (inactive) | 4.38 µM (inactive) | 4.32 µM (inactive) | 8.79 µM (inactive) | 27.2 µM (inactive) | 4.73 µM (inactive) |  |  |  |
| CC(=O)OC1C=C(C=O)C(O)(C=O)C2(C)CCCC(C)(C)C12 (stereo not drawn) | 2.69 µM (inactive) | 0.456 µM (active) | 2.67 µM (inactive) | 1.8 µM (inactive) | 0.491 µM (active) | 2.11 µM (inactive) | 1.23 µM (inactive) | 1.05 µM (active) | 1.28 µM (inactive) | 2.08 µM (inactive) | 1.89 µM (inactive) | 1.05 µM (active) | 0.931 µM (active) | 0.927 µM (active) |  |  |  |
| Cn1ncc2c(=O)[nH]c(-c3ccccc3)nc21 |  | > 100 µM (inactive) | > 100 µM (inactive) |  | > 100 µM (inactive) | > 100 µM (inactive) |  | > 100 µM (inactive) |  | > 100 µM (inactive) |  |  | < 0.01 µM (active) | > 100 µM (inactive) | > 100 µM (inactive) | > 100 µM (inactive) | > 100 µM (inactive) |
| CCCOC(=O)CNC(=O)OC(C)(C)C | > 100 µM (inactive) | > 100 µM (inactive) | > 100 µM (inactive) |  | > 100 µM (inactive) | > 100 µM (inactive) | > 100 µM (inactive) | > 100 µM (inactive) |  | > 100 µM (inactive) |  | > 100 µM (inactive) | 0.897 µM (active) | > 100 µM (inactive) | > 100 µM (inactive) | > 100 µM (inactive) | > 100 µM (inactive) |
| CC(C)C1=CC2=CC[C@@H]3[C@](C)(CCC[C@@]3(C)C(=O)O)[C@H]2CC1 [ABIETIC ACID] | 49.2 µM (inactive) | 45.7 µM (inactive) | 59.7 µM (inactive) |  | > 62.1 µM (inactive) | 63.2 µM (inactive) | 59 µM (inactive) | > 67.9 µM (inactive) | 49.8 µM (inactive) | 48.1 µM (inactive) |  | 37.2 µM (inactive) | > 75 µM (inactive) | 58.9 µM (inactive) | 53.8 µM (inactive) | > 66.4 µM (inactive) | 67.9 µM (inactive) |
| CC(C)=CCc1c(O)ccc2ccc(=O)oc12 [OSTHENOL] | 47.6 µM (inactive) | 48.2 µM (inactive) | 32 µM (inactive) | 20.9 µM (inactive) | 38.5 µM (inactive) | > 100 µM (inactive) | 47.1 µM (inactive) | > 100 µM (inactive) | 54.8 µM (inactive) | 63.7 µM (inactive) | 34.9 µM (inactive) | 38.4 µM (inactive) | 43.6 µM (inactive) | 27.9 µM (inactive) |  |  |  |
